Data: PMC7802075 (ACS Infectious Diseases, 2020)
Like-named read-outs stand apart in the source and are kept apart here. Where a SMILES comes first, the peptide text is derived from it.

Target: T1, LmjIPCS (inositol phosphorylceramide synthase from L. major) (Leishmania major, UniProt E9AFX2)
T1 sequence (E9AFX2 1-338): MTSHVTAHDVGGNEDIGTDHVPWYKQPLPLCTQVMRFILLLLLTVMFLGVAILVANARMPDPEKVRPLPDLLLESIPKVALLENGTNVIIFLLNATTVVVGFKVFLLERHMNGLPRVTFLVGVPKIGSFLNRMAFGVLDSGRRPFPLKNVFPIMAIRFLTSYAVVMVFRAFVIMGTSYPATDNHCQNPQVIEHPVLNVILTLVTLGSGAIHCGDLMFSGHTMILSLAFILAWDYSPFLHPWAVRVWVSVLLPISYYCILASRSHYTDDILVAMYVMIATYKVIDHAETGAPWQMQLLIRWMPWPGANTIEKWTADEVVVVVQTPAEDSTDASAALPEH
Experiment: biochemical
Assay type: biochemical
Set-up: inhibition: dose or concentration left out as unconfirmed
Conditions: for inhibition at 20000 µM: read-out: 20mM inhibition LmjIPCS; for inhibition: read-out: inhibition LmjIPCS

[1] = single concentration 20mM as printed, screening of NINDS set, sheet Screen 1
[2] = NINDS set screen, single concentration printed as 20mM
[3] = screening of NINDS set, sheet Screen 1

With `CC[C@@H](C)C(=O)O[C@H]1[C@H](O)[C@H]2[C@@H](CN3C[C@@H](C)CC[C@H]3[C@@]2(C)O)[C@@H]2C[C@]34O[C@]5(O)[C@@H](OC(=O)[C@](C)(O)[C@@H](C)O)CC[C@@]3(C)[C@@H]5[C@@H](OC(C)=O)[C@@H](OC(C)=O)[C@H]4[C@@]21O` (stereo in doubt) [PROT[…]] the inhibition at 20000 µM was 14%.
For `CCCCCCc1ccc(O)cc1O.Nc1c2ccccc2nc2ccccc12` [ACRISORCIN], the “20mM inhibition LmjIPCS” value was 30%.
Work on `CCn1cc(C(=O)O)c(=O)c2cc(F)c(N3CCNC(C)C3)c(F)c21` (stereo not shown) [LOMEFLOXACIN] yielded an inhibition of 4%.
With `CC(C)OC(=O)C(C)(C)Oc1ccc(C(=O)c2ccc(Cl)cc2)cc1` [FENOFIBRATE] the “20mM inhibition LmjIPCS” value was 58%.
In the case of `N#C/C(=C\c1cccc(O)c1)C(=O)O` [alpha-CYANO-3-HYDROXYCINNAMIC ACID], the inhibition at 20000 µM is reported as 8%.
In the case of `CC1CCC(C(C)C)C(O)C1` (stereo not drawn) [MENTHOL(-)], the “20mM inhibition LmjIPCS” value [1] is reported as 4%.
With `C[C@H]1C[C@H]2[C@@H]3CCC4=CC(=O)C=C[C@]4(C)[C@@]3(F)[C@@H](O)C[C@]2(C)[C@@]1(O)C(=O)CO` [BETAMETHASONE] the “20mM inhibition LmjIPCS” value was 45%.
`CC(C)(C)C(=O)C(Oc1ccc(Cl)cc1)n1cncn1` (stereo not shown) [TRIADIMEFON] showed an inhibition at 20000 µM of 17%.
With `CCCC(C(=O)OCCN(CC)CC)(c1ccccc1)c1ccccc1` [PROADIFEN] the “20mM inhibition LmjIPCS” value [2] was 36%.
With `NC(=O)c1cc([N+](=O)[O-])cc([N+](=O)[O-])c1` [NITROMIDE] the “20mM inhibition LmjIPCS” value was 9%.
For `CCCC(C)(COC(N)=O)COC(=O)NC(C)C` (stereo not shown) [CARISOPRODOL], the “20mM inhibition LmjIPCS” value was 52%.
With `CCC(=O)O[C@]1(C(=O)CCl)[C@@H](C)C[C@H]2[C@@H]3CCC4=CC(=O)C=C[C@]4(C)[C@@]3(F)[C@@H](O)C[C@@]21C` [CLOBETASOL PROPRIONATE] the “20mM inhibition LmjIPCS” value was 17%.
With DEGUELIN(-) the “20mM inhibition LmjIPCS” value was 51%.
Compound `NCCc1ccc(O)c(O)c1` [DOPAMINE] has an inhibition at 20000 µM of -1.1%.
`CO[C@@]1(NC(=O)Cc2cccs2)C(=O)N2C(C(=O)O)=C(COC(N)=O)CS[C@@H]21` [CEFOXITIN] gave an inhibition at 20000 µM of 3.72%.
`CC(C)=CC1C(C(=O)OCc2cccc(Oc3ccccc3)c2)C1(C)C` (stereo not shown) [PHENOTHRIN] was tested, and the “20mM inhibition LmjIPCS” value was 39%.
Compound `O=C(O)c1cc(=O)c2c(OCC(O)COc3cccc4oc(C(=O)O)cc(=O)c34)cccc2o1` [CROMOLYN] has an inhibition of 0.579%.
For `C[N+]1(C)[C@@H]2C[C@@H](OC(=O)[C@H](CO)c3ccccc3)C[C@H]1[C@@H]1O[C@@H]12` [METHSCOPOLAMINE BROMIDE], the inhibition at 20000 µM was 10%.
`CC(=O)c1c(O)c(C)c(O)c2c1OC1=CC(=O)C(C(C)=O)C(=O)C12C` (stereo not shown) [USNIC ACID] showed an inhibition at 20000 µM of 29%.
For `CC(=O)OCC1=C(C(=O)O)N2C(=O)[C@@H](NC(=O)CSc3ccncc3)[C@H]2SC1` [CEPHAPIRIN], the “20mM inhibition LmjIPCS” value was 47%.
In the case of `O=c1cc(CO)occ1O` [KOJIC ACID], the inhibition is reported as 11%.
In the case of `NS(=O)(=O)c1cc2c(cc1Cl)N=C(CSCc1ccccc1)NS2(=O)=O` [BENZTHIAZIDE], the “20mM inhibition LmjIPCS” value [2] is reported as 36%.
`CC(=O)N[C@@H](Cc1c[nH]c2ccccc12)C(=O)O` [ACETYLTRYPTOPHAN] gave an inhibition at 20000 µM of -17%.
`COc1ccc(C(CN(C)C)C2(O)CCCCC2)cc1` (stereo not shown) [VENLAFAXINE] gave an inhibition at 20000 µM of 26%.
In the case of `N[C@H]1C(O)O[C@H](CO)[C@@H](O)[C@@H]1O` (stereo partly shown) [GLUCOSAMINE], the inhibition at 20000 µM is reported as 10%.
Compound `C[C@H]1O[C@@H](O[C@H]2[C@@H](O)C[C@H](O[C@H]3[C@@H](O)C[C@H](O[C@H]4CC[C@@]5(C)[C@H](CC[C@@H]6[C@@H]5C[C@@H](O)[C@]5(C)[C@@H](C7=CC(=O)OC7)CC[C@]65O)C4)O[C@@H]3C)O[C@@H]2C)C[C@H](O)[C@@H]1O` [DIGOXIN] has an inhibition at 20000 µM of 5.32%.
In the case of `COc1ccc(C(Cl)=C(c2ccc(OC)cc2)c2ccc(OC)cc2)cc1` [CHLOROTRIANISENE], the “20mM inhibition LmjIPCS” value [2] is reported as 65%.
Compound `NCCSSCCN` [CYSTAMINE] has an inhibition [3] of 6.34%.
Compound `N[C@@H](Cc1ccc(O)c(O)c1)C(=O)O` [LEVODOPA] has an inhibition of 21%.
With `N[C@@H](Cc1ccccc1)C(=O)N[C@@H](Cc1ccc(O)cc1)C(=O)O` [PHENYLALANYLTYROSINE] (H-Phe-Tyr-OH) the inhibition at 20000 µM was 7.42%.
With `CC(=O)[C@@]1(O)CC[C@H]2[C@@H]3C=C(Cl)C4=CC(=O)[C@@H]5C[C@@H]5[C@]4(C)[C@H]3CC[C@@]21C` [CYPROTERONE] the “20mM inhibition LmjIPCS” value [1] was 10%.
`O=c1[nH]c(=O)n([C@H]2C[C@H](O)[C@@H](CO)O2)cc1F` [FLOXURIDINE] gave an inhibition (NINDS set screen) of -2.28%.
For `O=C(O)c1ccccc1OP(=O)(O)O` [FOSFOSAL], the inhibition (NINDS set screen) was 13%.
`CN(C)[C@@H]1C(O)=C(C(N)=O)C(=O)[C@@]2(O)C(O)=C3C(=O)c4c(O)ccc(Cl)c4[C@@H](O)[C@H]3C[C@@H]12` [DEMECLOCYCLINE] was tested, and the inhibition at 20000 µM was -2%.
With `Oc1ccc(/C=C/c2cc(O)cc(O)c2)cc1` [RESVERATROL] the inhibition was -9%.
`Sc1nc2ccccc2s1` [2-MERCAPTOBENZOTHIAZOLE] showed an inhibition at 20000 µM of 24%.
With `O=C(O)c1ccccc1Nc1cccc(C(F)(F)F)c1` [FLUFENAMIC ACID] the inhibition at 20000 µM was -16%.
For `CCN(CC)C(=O)N1CCN(C)CC1` [DIETHYLCARBAMAZINE], the inhibition was -3%.
With `NC1=NCCN1CC(=O)O` [CYCLOCREATINE] the inhibition [3] was 11%.
`Cc1ccc(S(=O)(=O)NC(=O)NN2CC3CCCC3C2)cc1` (stereo not shown) [GLICLAZIDE] showed an inhibition at 20000 µM of 14%.
For `O=c1ccc2cc(O[C@@H]3O[C@H](CO)[C@@H](O)[C@H](O)[C@H]3O)c(O)cc2o1` [AESCULIN], the “20mM inhibition LmjIPCS” value was 10%.
`COc1ccc2c(c1OC)C(=O)O[C@@H]2[C@H]1c2c(cc3c(c2OC)OCO3)CCN1C` [NOSCAPINE] showed an inhibition of 19%.
`C[C@]12C=CC(=O)C=C1CC[C@@H]1[C@@H]2C(=O)C[C@@]2(C)[C@H]1CC[C@]2(O)C(=O)CO` [PREDNISONE] gave an inhibition of -4%.
With 1R,2S-PHENYLPROPYLAMINE the “20mM inhibition LmjIPCS” value was -2.19%.
`CCC(C(N)=O)c1ccccc1` (stereo not shown) [FENBUTYRAMIDE] gave an inhibition [3] of 9%.
For `CN1C(=O)CC[C@H]1c1cccnc1` [COTININE], the “20mM inhibition LmjIPCS” value was 34%.
Compound `CN1C(C(=O)Nc2ccccn2)=C(O)c2ccccc2S1(=O)=O` [PIROXICAM] has an inhibition of 15%.
`C=C(C)[C@@H]1[C@H]2OC(=O)[C@@H]1[C@]1(O)C[C@H]3O[C@]34C(=O)O[C@H]2[C@]14C` [PICROTOXININ] showed an inhibition at 20000 µM of 13%.
Compound `COC(=O)C1=C(C)NC(C)=C(C(=O)OCCN(C)Cc2ccccc2)C1c1cccc([N+](=O)[O-])c1` (stereo not shown) [NICARDIPINE] has an inhibition of -15%.
With `Oc1noc2c1CCNC2` [GABOXADOL] the inhibition at 20000 µM was -24%.
With `CC(C)(C)NC[C@H](O)COc1nsnc1N1CCOCC1` [TIMOLOL] the inhibition was 22%.
In the case of `CC(CN(C)C)CN1c2ccccc2CCc2ccccc21` (stereo not shown) [TRIMIPRAMINE], the inhibition [3] is reported as 2%.
Compound `CC(=O)S[C@@H]1CC2=CC(=O)CC[C@]2(C)[C@H]2CC[C@@]3(C)[C@@H](CC[C@@]34CCC(=O)O4)[C@H]12` [SPIRONOLACTONE] has an inhibition (NINDS set screen) of -1.06%.
`CC(=O)O[C@@H]1C[C@H]2C(C)(C)C(=O)C=C[C@]2(C)[C@H]2CC[C@@]3(C)[C@H](c4ccoc4)OC(=O)[C@H]4O[C@]43[C@@]21C` [GEDUNIN] was tested, and the “20mM inhibition LmjIPCS” value [2] was 48%.
In the case of `CN1CCCN=C1/C=C/c1cccs1`, the inhibition at 20000 µM is reported as 20%.
For `CC1=C(O)C(=O)C=C2C1=CC=C1[C@@]2(C)CC[C@@]2(C)[C@@H]3C[C@](C)(C(=O)O)CC[C@]3(C)CC[C@]12C` [CELASTROL], the “20mM inhibition LmjIPCS” value was 54%.
In the case of `CNNC` [1,2-DIMETHYLHYDRAZINE], the “20mM inhibition LmjIPCS” value is reported as 15%.
For `CCOC(=O)c1ccc(N)cc1` [BENZOCAINE], the “20mM inhibition LmjIPCS” value [2] was 46%.
